Read-outs that look alike come from different tables or passages of the source.
Tests used:
METTL3/METTL14 = METTL3/METTL14 (Homo sapiens, UniProt Q86U44); experiment: METTL3-14 Standard Enzyme Assay (METTL3 biochemical assay)
How it was run: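 METTL3/METTL14 at 2.5 nM, preincubated 5 min with compound in 20 mM HEPES pH 7.5, 50 mM KCl, 250 μM MgCl2, 1 mM DTT, at ambient temperature. Started with 100 nM 3′-biotinylated RNA and 100 nM ³H-SAM, quenched at 30 min with 15 μM cold SAM. Methylation read by scintillation on streptavidin flashplates.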

METTL1/WDR4 = METTL1/WDR4 (Homo sapiens, UniProt Q9UBP6); experiment: METTL1 Assay (METTL1 biochemical assay)
How it was run: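 Radiometric methyltransfer by METTL1/WDR4 (6.25 nM f.c., 5 min preincubation) at ambient temperature in HEPES pH 7.5, KCl, MgCl2, DTT; started with 25 nM 3′-biotinylated RNA and 60 nM 3H-SAM, run 20 min, quenched with 15 μM cold SAM. Product captured on streptavidin flashplates (2 h, 25° C), counted by scintillation.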

METTL16 = molecular target: T1, METTL16 (Homo sapiens, UniProt Q86W50); experiment: METTL16 Assay (METTL16 biochemical assay); conditions: read-out: METTL16 IC50
T1 sequence (Q86W50 1-562): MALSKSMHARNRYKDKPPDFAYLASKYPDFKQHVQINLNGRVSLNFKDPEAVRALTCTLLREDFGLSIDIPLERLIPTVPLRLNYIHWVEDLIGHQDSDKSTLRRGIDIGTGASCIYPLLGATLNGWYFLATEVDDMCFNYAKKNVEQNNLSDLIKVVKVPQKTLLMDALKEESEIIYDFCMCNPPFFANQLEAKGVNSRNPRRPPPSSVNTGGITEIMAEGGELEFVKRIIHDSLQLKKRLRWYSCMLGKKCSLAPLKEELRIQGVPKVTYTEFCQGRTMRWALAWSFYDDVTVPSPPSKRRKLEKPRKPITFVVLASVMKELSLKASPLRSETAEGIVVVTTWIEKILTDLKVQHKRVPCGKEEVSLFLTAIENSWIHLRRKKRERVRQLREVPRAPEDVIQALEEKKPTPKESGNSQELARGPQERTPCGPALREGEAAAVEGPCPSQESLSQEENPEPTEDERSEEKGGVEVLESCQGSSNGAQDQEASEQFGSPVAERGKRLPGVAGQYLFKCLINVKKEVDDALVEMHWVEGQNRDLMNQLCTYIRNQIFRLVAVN
Experimental: Assays were performed in a 25 μl-volume in 384-well V-bottom polypropylene microplates (Greiner Bio-One, cat. No. 781280) at ambient temperature. Optimized 1× assay buffer was 20 mM HEPES pH 7.5, 50 mM KCl, 1 mM DTT, 0.01% Tween, 0.01% BSG, 0.004 U/μl RNAseOUT (cat. No. 10777019, ThermoFisher Scientific, Waltham, Mass.). For compound screening METTL16 (final concentration, f.c.=100 nM) was added using a Multidrop Combi (ThermoFisher Scientific, Waltham, Mass.) and preincubated for 5 min. Reactions were started by adding 3′ biotinylated RNA ([…]-biotin) (f.c.=50 nM), 3H-SAM (f.c.=200 nM) and non-radiolabeled SAM (f.c.=800 nM) substrates. Reactions proceeded for 20 minutes and were quenched with excess non-radioactive SAM (f.c.=100 μM). The reactions were then transferred to streptavidin-coated flashplates and incubated for 2 hours at 25° C. Following two washing cycles with 0.1% Tween-20, the plates were sealed and read on a TopCount (PerkinElmer, Waltham, Mass.) plate-based scintillation counter. For determination of kinetic parameters, reaction times were optimized so that measurements were taken during the initial velocity phase of the reaction.

PRMT5-MEP50 = PRMT5-MEP50 (Homo sapiens, UniProt O14744); experiment: PRMT5 Assay (PRMT5 biochemical assay)
How it was run: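 PRMT5-MEP50 (2.5 nM final) preincubated 5 min with compound, then reacted 60 min at ambient temperature with 100 nM biotinylated N-acetyl histone H4 peptide and 250 nM 3H-SAM in 20 mM Tris-HCl pH 8.0, 1 mM DTT, 0.01% Tween. Quenched with 15 μM cold SAM; methylated peptide captured on streptavidin flashplates, scintillation counted.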

[1] = METTL3 biochemical assay; read-out: METTL3 IC50
[2] = read-out: METTL1 IC50; METTL1 biochemical assay
[3] = PRMT5 biochemical assay; read-out: PRMT5 IC50
[4] = read-out: METTL3 IC50; METTL3 biochemical assay
[5] = METTL1 biochemical assay; read-out: METTL1 IC50
[6] = read-out: PRMT5 IC50; PRMT5 biochemical assay

METTL1/WDR4, sequence (Q9UBP6 whole entry, species assumed): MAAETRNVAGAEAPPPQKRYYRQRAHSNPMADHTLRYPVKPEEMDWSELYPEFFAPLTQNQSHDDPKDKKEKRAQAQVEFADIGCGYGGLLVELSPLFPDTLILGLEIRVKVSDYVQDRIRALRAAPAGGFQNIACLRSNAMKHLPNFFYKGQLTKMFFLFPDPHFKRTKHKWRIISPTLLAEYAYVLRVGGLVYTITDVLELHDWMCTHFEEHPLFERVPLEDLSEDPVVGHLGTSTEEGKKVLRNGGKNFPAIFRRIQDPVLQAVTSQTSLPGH
METTL1/WDR4, sequence (P57081 whole entry partner, species assumed): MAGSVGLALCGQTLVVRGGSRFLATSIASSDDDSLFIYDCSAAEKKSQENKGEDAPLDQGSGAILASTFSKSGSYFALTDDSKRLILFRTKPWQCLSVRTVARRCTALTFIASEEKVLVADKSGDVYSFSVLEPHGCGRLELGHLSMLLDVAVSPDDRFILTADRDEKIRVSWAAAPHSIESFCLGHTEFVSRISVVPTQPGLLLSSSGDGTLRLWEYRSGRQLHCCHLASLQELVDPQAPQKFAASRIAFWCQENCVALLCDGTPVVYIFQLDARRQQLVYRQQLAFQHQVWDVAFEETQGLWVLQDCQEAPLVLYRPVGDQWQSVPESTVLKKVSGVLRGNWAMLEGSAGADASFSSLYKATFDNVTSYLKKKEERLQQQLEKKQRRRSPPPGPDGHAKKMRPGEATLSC
METTL3/METTL14, sequence (Q86U44 whole entry, species assumed): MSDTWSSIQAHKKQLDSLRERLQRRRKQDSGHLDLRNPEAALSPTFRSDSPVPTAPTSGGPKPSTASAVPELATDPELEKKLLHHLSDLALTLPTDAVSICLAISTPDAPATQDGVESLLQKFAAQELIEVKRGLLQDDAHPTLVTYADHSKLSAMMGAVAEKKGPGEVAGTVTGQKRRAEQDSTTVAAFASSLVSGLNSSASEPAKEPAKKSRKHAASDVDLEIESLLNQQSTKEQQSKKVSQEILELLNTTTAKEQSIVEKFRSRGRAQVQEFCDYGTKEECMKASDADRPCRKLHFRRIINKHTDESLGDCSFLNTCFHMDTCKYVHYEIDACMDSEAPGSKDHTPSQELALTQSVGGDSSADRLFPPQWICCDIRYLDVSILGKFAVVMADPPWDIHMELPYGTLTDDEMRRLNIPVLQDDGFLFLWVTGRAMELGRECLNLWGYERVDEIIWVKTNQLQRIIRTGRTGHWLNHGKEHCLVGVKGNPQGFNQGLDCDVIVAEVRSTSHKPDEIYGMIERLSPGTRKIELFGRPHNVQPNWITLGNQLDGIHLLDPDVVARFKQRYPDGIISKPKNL
METTL3/METTL14, sequence (Q9HCE5 whole entry partner, species assumed): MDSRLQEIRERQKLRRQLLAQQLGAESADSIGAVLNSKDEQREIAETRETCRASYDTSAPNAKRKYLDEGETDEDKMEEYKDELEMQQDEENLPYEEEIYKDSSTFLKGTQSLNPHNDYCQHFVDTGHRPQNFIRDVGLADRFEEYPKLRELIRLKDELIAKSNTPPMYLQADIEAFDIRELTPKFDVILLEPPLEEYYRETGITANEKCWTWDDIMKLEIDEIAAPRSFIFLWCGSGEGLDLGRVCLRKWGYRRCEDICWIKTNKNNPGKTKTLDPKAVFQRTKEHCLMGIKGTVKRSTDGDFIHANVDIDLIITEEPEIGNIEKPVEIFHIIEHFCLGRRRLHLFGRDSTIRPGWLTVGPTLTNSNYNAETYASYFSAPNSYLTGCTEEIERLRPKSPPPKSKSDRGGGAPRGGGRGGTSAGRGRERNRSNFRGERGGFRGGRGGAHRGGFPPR
PRMT5-MEP50, sequence (O14744 whole entry): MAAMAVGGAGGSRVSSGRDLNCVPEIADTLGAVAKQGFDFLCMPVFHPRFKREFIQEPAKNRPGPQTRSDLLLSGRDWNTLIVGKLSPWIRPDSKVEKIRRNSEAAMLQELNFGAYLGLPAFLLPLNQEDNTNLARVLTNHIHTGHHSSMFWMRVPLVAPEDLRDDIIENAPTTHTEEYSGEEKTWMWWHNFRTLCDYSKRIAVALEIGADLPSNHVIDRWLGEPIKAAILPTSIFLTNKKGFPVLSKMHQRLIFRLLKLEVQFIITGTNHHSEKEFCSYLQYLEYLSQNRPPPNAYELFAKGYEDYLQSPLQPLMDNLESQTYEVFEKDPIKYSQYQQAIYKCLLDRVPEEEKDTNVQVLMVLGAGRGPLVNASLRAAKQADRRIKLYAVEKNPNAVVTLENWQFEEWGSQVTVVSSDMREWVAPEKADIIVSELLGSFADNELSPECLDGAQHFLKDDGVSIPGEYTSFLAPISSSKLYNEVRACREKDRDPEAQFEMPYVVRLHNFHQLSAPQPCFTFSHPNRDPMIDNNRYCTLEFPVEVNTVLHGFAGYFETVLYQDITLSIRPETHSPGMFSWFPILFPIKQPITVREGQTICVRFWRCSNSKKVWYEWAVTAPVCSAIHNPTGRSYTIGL
PRMT5-MEP50, sequence (Q9BQA1 whole entry partner): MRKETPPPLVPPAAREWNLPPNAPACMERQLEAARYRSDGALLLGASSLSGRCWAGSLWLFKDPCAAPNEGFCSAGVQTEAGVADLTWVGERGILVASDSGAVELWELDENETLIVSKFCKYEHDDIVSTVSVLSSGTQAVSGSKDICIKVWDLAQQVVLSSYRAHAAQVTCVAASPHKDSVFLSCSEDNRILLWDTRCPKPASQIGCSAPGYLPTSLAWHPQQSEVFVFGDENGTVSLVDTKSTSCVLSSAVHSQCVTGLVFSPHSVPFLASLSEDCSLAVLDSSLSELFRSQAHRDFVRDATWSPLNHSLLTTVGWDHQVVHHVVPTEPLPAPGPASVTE

SMILES	IC50 (METTL3/METTL14; [1]) [µM]	IC50 (METTL1/WDR4; [2]) [µM]	IC50 (METTL16) [µM]	IC50 (PRMT5-MEP50; [3]) [µM]	IC50 (METTL3/METTL14; [4]) [µM]	IC50 (METTL1/WDR4; [5]) [µM]	IC50 (PRMT5-MEP50; [6]) [µM]
Nc1nc2ccc(OC[C@H]3O[C@@H](n4cc(Br)c5c(N)ncnc54)[C@@H](F)[C@@H]3O)cc2[nH]1 [I-21]	0.1 to 1	> 1	> 1	0.01 to 0.1			
CNc1ccc2ccc(OC[C@H]3O[C@@H](n4cc(C5CCN(C)CC5)c5c(N)ncnc54)[C@@H](F)[C@@H]3O)cc2n1 [I-24]	0.01 to 0.1	> 1	> 1	0.1 to 1			
CNc1ccc2ccc(OC[C@H]3O[C@@H](n4cc(Br)c5c(N)nc(N)nc54)[C@@H](F)[C@@H]3O)cc2n1 [I-25]	0.1 to 1	> 1	> 1	0.01 to 0.1			
Cn1ccnc1-c1ccc2ccc(OC[C@H]3O[C@@H](n4cc(Br)c5c(N)ncnc54)[C@@H](F)[C@@H]3O)cc2n1 [I-26]	> 1	> 1	> 1	0.1 to 1			
CN(C)Cc1cccc(OC[C@H]2O[C@@H](n3cc(Br)c4c(N)ncnc43)[C@@H](F)[C@@H]2O)c1 [I-31]	> 1	> 1	> 1	0.1 to 1			
CNc1ccc2ccc(OC[C@H]3O[C@@H](n4cc(C5=CCNC5)c5c(N)ncnc54)[C@@H](F)[C@@H]3O)cc2n1 [I-32]	0.01 to 0.1	> 1	> 1	0.1 to 1			
CNc1ccc2ccc(OC[C@H]3O[C@@H](n4cc(C5=CCN(C)CC5)c5c(N)ncnc54)[C@@H](F)[C@@H]3O)cc2n1 [I-35]	0.01 to 0.1	> 1	> 1	0.1 to 1			
CNc1ccc2ccc(OC[C@H]3O[C@@H](n4cc(-c5ccnn5C)c5c(N)ncnc54)[C@@H](F)[C@@H]3O)cc2n1 [I-37]			> 1		0.01 to 0.1	> 1	0.1 to 1
CNc1ccc2ccc(OC[C@H]3O[C@@H](n4cc(C(F)(F)F)c5c(N)ncnc54)[C@@H](F)[C@@H]3O)cc2n1 [I-38]	0.01 to 0.1	> 1	> 1	0.1 to 1			
CNc1ccc2ccc(OC[C@H]3O[C@@H](n4cc(-c5cccnc5)c5c(N)ncnc54)[C@@H](F)[C@@H]3O)cc2n1 [I-40]			> 1		0.01 to 0.1	> 1	0.1 to 1
CNc1ccc2ccc(OC[C@H]3O[C@@H](n4cc(Br)c5c(N)nccc54)[C@@H](F)[C@@H]3O)cc2n1 [I-41]	0.1 to 1	> 1	> 1	0.1 to 1			
CNc1ccc2ccc(OC[C@H]3O[C@@H](n4cc(-c5cc(F)cc(F)c5)c5c(N)ncnc54)[C@@H](F)[C@@H]3O)cc2n1 [I-43]			> 1		0.1 to 1	> 1	0.1 to 1
CNc1ccc2ccc(OC[C@H]3O[C@@H](n4cc(C)c5c(N)ncnc54)[C@@H](F)[C@@H]3O)cc2n1 [I-44]	0.01 to 0.1	> 1	> 1	0.01 to 0.1			
CNc1ccc2ccc(OC[C@H]3C[C@@H](n4cc(C5CCCC5)c5c(N)ncnc54)C[C@@H]3O)cc2n1 [I-50]	0.01 to 0.1	> 1	> 1	0.1 to 1			
CCNc1ccc2ccc(OC[C@H]3O[C@@H](n4ccc5c(N)ncnc54)[C@H](O)[C@@H]3O)cc2n1 [I-67]	< 0.01	> 1	> 1	< 0.01			
CNc1ccc2cc(OC[C@H]3O[C@@H](n4cc(Br)c5c(N)ncnc54)[C@H](O)[C@@H]3O)ccc2n1 [I-69]	0.01 to 0.1		> 1	0.01 to 0.1		> 1	
CCNc1ccc2ccc(OC[C@H]3C[C@@H](n4ccc5c(N)ncnc54)[C@H](O)[C@@H]3O)cc2n1 [I-81]	0.01 to 0.1		> 1	< 0.01			
CCNc1ccc2ccc(CC[C@H]3O[C@@H](n4ccc5c(N)ncnc54)[C@H](O)[C@@H]3O)cc2n1 [I-90]	0.01 to 0.1		> 1	< 0.01			
